# Experimental data published in patent US20240117385A1, “ENZYMES OF LUCIFERIN BIOSYNTHESIS AND USE THEREOF” (LIGHT BIO, INC., priority 2018, published 2024).
# B1: Neonothopanus nambi caffeylpyruvate hydrolase: enzyme converting caffeylpyruvate to caffeic acid, expressed in transgenic plants (protein, listed as Neonothopanus nambi)
# chain: MAPISSTWSRLIRFVAIETSLVHIGEPIDATMDVGLARREGKTIQAYEIIGSGSALDLSAQVSKNVLTVRELLMPLSREEIKTVRCLGLNYPVHATEANVAVPKFPNLFYKPVTSLIGPDGLITIPSVVQPPKEHQSDYEAELVIVIGKAAKNVSEDEALDYVLGYTAANDISFRKHQLAVSQWSFSKGFGSLLLTIRMAQTHSGNINRFSRDQIFNVKKTISFLSQGTTLEPGSIILTGTPDGVGFVRNPPLYLKDGDEVMTWIGSGIGTLANTVQEEKTCFASGGHE
# Key:
# [1] = system: hispidin hydroxylase and luciferase fusion protein; experiment: Bioluminescence of HEK293T cells expressing hispidin hydroxylase and luciferase fusion protein; type: cell-based, Neonothopanus nambi; details: 24 hours after transfection, 1 million of cells in 0.5 ml PBS; hispidin 10 μg per 1 million of cells
# Excerpt: Humanized DNA sequences coding hispidin-hydroxylase and luciferase of Neonothopanus nambi, obtained according to Example 2, were operatively cross-linked to each other by flexible short peptide linker with amino acid sequence GGSGGSGGS (SEQ ID NOs:115). Nucleotide and amino acid sequences of the obtained fused protein are shown in SEQ ID NO 101 and 102. Nucleic acid coding fused protein was cloned into pEGFP-N1 vector (Clontech, USA) instead of EGFP gene under Cytomegaloviral promoter control. The obtained structure was transfected into HEK293T cells. Analogous vectors, comprising individual genes of hispidin hydroxylase and luciferase, were also co-transfected. Transfection was performed by transfection agent FuGENE HD (Promega, USA) according to the manufacturer's protocol. 24 hours after transfection 1 million of cells were resuspended in 0.5 ml of PBS, and luminescence without adding hispidin and with addition of hispidin (10 μg per 1 million of cells) was recorded by luminometer.
# [2] = system: Neonothopanus nambi luciferase; experiment: Bioluminescence reaction of biosynthetic 3-hydroxyhispidin; type: biochemical; details: 3-hydroxyhispidin purified from fermenter medium by HPLC
# Excerpt: Expression cassette, comprising nucleic acid coding Neonothopanus nambi hispidin hydroxylase (SEQ ID NOs 1, 2) under control of J23100 promoter, was obtained synthetically and cloned into bacterial expression vector comprising spectinomycin resistance gene. The obtained vector was transformed into E. coli cells expressing Neonothopanus nambi hispidin-synthase, Zeocin resistance gene and NpgA gene, obtained according to Example 12. The obtained bacteria were used for producing 3-hydroxyhispidin by fermentation according to the protocol described in Example 12, however with adding of spectinomycin at concentration of […] in all media used for cultivation. After 48 hours of cultivation the 3-hydroxyhispidin concentration in the medium was 2.3 g/l.
# [3] = system: hispidin-synthase of Neonothopanus nambi; experiment: Determination of hispidin synthase functionality; type: biochemical; details: 20 μM caffeic acid
# Excerpt: (§1) Polyhistidine (H is tag) coding sequence was operatively attach ed to 5′-ends of nucleic acids coding hispidin-synthase and caffeylpyruvate hydrolase of Neonothopanus nambi, obtained according to Example 9, and the obtained structures were cloned into pET-23 vector by means of restriction endonucleases NotI and SacI. The vectors were used for transformation of Escherichia coli cells of BL21-DE3-codon+ strain, performed by electroporation. The transformed cells were dispersed in Petri dishes with LB medium, comprising 1.5% of agar, 100 μg/ml of ampicillin, and incubated overnight at 37° C. […]
# (§2) For determination of hispidin synthase functionality 30 μl of isolated recombinant protein solution were put into a glass tube, comprising 100 μl of the buffer (0.2 M of Na-phosphate buffer, 0.5 M of Na2SO4, 0.1% dodecylmaltoside (DDM) pH 8.0, all components—Sigma-Aldrich, USA), 0.5 μl of purified recombinant luciferase of Neonothopanus nambi, obtained according to Example 4, 1 mM of NADPH (Sigma-Aldrich, USA), 15 μl of purified recombinant hispidin hydroxylase of Neonothopanus nambi, obtained according to Example 4, 10 mM of ATP (ThermoFisher Scientific, USA), 1 mM of CoA (Sigma-Aldrich, USA), 1 mM of malonyl-CoA (Sigma-Aldrich, USA). […] Maximum emission of the emitted luminescence was 520-535 nm.
# [4] = system: Autonomously bioluminescent transgenic plants Nicotiana benthamiana; experiment: Effect of external adding caffeic acid on transgenic plant bioluminescence; type: in vivo; details: 0.4-6.4 g/l, two hours of incubation
# Protocol: Autonomously bioluminescent transgenic plants Nicotiana benthamiana, obtained according to Example 16, were transferred to soil and cultured within eight weeks. Then, plant stem was cut and placed in water for two hours, after that, bioluminescence intensity was measured by IVIS Spectrum In Vivo Imaging System (Perkin Elmer). Then, plants were transferred to one of five water solutions at caffeic acid concentration of 0.4 g/l, 0.8 g/l, 1.6 g/l, 3.2 g/l, or 6.4 g/l, and control plants were placed in water. After two more hours of incubation in the caffeic acid solution or in water bioluminescence intensity was measured again.
# [5] = system: caffeylpyruvate hydrolase of Neonothopanus nambi; experiment: Determination of caffeylpyruvate hydrolase functionality; type: biochemical; details: 25 μM caffeoyl pyruvate
# Excerpt: as §1
# For determination of caffeylpyruvate hydrolase functionality 10 μl of isolated recombinant protein solution were put into a glass tube, comprising 100 μl of the buffer (0.2 M of Na-phosphate buffer, 0.5 M of Na2SO4, 0.1% dodecylmaltoside (DDM) pH 8.0, 0.5 μl of luciferase of Neonothopanus nambi, 1 mM of NADPH (Sigma-Aldrich, USA), 15 μl of hispidin hydroxylase 10 mM of ATP (ThermoFisher Scientific, USA), 1 mM of CoA (Sigma-Aldrich, USA), 1 mM of malonyl-CoA (Sigma-Aldrich, USA), 30 μl of purified recombinant hispidin synthase. The glass tube was placed into a luminometer GloMax 20/20 (Promega, USA). […] Maximum emission of the emitted luminescence was 520-535 nm.
# [6] = system: PKS from Hydrangea macrophylla; experiment: Functionality of recombinant PKS; type: biochemical; details: 20 μM caffeyl-CoA
# Protocol: as §2, with “Nucleic acid coding PKS from Hydrangea macrophylla (SEQ ID NOs: 124, 125) was used for producing recombinant protein according to the technique described in Example 4. Presence” for “For determination”, “the expected recombinant product was confirmed by electrophoresis as bands of the expected length were available. Aliquots of the isolated recombinant protein were used for verifying” for “hispidin synthase”, “functionality of:” for “functionality”, “USA). The glass tube was placed into a luminometer GloMax 20/20 (Promega, USA).” for “USA).”
# Arabidopsis thaliana = experiment: Caffeylpyruvate hydrolase effect on luminescence of autonomously bioluminescent plants; type: in vivo; details: on average
# Excerpt: For the purpose of study of caffeylpyruvate hydrolase effect on luminescence of autonomously bioluminescent organisms there was used a binary vector for agrobacterium transformation comprising coding sequences of Neonothopanus nambi luciferase, Neonothopanus nambi hispidin hydroxylase, Neonothopanus nambi hispidin synthase, Neonothopanus nambi caffeylpyruvate hydrolase and kanamycin resistance gene, and each gene is under control of 35S promoter from cauliflower mosaic virus, obtained according to Example 16, and control vector characterized in that caffeylpyruvate hydrolase sequence was removed from it. The vectors were used for transformation of Arabidopsis thaliana in the same conditions according to the protocol described in Example 16. Bioluminescence was visualized by means of IVIS Spectrum In Vivo Imaging System (Perkin Elmer). […] The data provided indicate that expression of caffeylpyruvate hydrolase enables to increase bioluminescent cascade efficiency, that results in increasing the intensity of luminescence emitted by plants.
molecule,measurement,setting,value
"O=c1oc(/C=C/c2ccc(O)c(O)c2)cc(O)c1O [3-hydroxy hispidin, (E)-6-(3,4-dihydroxystyryl)-3,4-dihydroxy-2H-pyran-2-one]",cell luminescence on addition,[1],caused bioluminescent signal
same,activity in bioluminescence reaction,[2],active in bioluminescence reaction
O=C(O)/C=C/c1ccc(O)c(O)c1 [caffeic acid],bioluminescence of reaction mixture,[3],demonstrated bioluminescence
same,change of bioluminescence intensity vs before placing in caffeic acid solution,[4],increased
"O=C(/C=C/c1ccc(O)c(O)c1)/C=C(/O)C(=O)O [caffeoyl pyruvate, (2E,5E)-6-(3,4-dihydroxyphenyl)-2-hydroxy-4-oxohexa-2,5-diene acid]",Bioluminescence of the reaction mixture,[5],Bioluminescence of the reaction mixture was detected
CC(C)(COP(=O)(O)OP(=O)(O)OC[C@H]1O[C@@H](n2cnc3c(N)ncnc32)[C@H](O)[C@@H]1OP(=O)(O)O)[C@@H](O)C(=O)NCCC(=O)NCCSC(=O)/C=C/c1ccc(O)c(O)c1 [caffeyl-CoA],bioluminescence of reaction mixtures,[6],demonstrated bioluminescence
B1,"brightness of bioluminescence vs plants expressing only luciferase, hispidin hydroxylase and hispidin synthase",Arabidopsis thaliana,8.3 times
